Assay results published in US20230339854A1, “Negative Allosteric Modulation of GluN3-Containing N-Methyl-D-Aspartate Receptors” (Emory University, priority 2020, published 2023).
“Also recorded” adds a separate entry of the source.

Columns and labels:
Type in all cases: cell-based
[1] = molecular target: T1, rat GluN1-4a^FA,TL/GluN3B receptors (Rattus norvegicus, UniProt Q8VHN2); assay: Two-electrode voltage-clamp recordings of GluN1-4a^FA,TL/GluN3B receptors (Xenopus oocytes)
T1 construct: Human GluN3A (NP_597702.2) and rat GluN3B (NP_579842.2) were synthesized and subcloned into SP6 plasmids; expressed in transfected cells; host or cells: Xenopus laevis oocytes, cRNA injection
Source text: cDNA encoding human wild-type (WT) GluN1-1a (GenBank accession numbers NP_015566, hereafter GluN1) and rat GluN1-1a (NP_058706.1) were synthesized and subcloned into pGEMHE plasmid; some experiments used the rat splice variant GluN1-4a (NP_001257531.1). Human GluN3A (NP_597702.2) and rat GluN3B (NP_579842.2) were synthesized and subcloned into SP6 plasmids. For most experiments, human GluN1 was co-expressed with human GluN3A, except for mutagenesis experiments where rat GluN1 was co-expressed with human GluN3A. Rat GluN1-4a was always expressed with rat GluN3B.
Defolliculated Xenopus laevis oocytes (stage V-VI) were obtained from Ecocyte BioScience (Austin, Texas), or prepared from commercially available Xenopus ovaries (Xenopus 1, Dexter, MI) as previously described (Hansen, et al., Mol. Pharmacol., 2013). A Drummond Nanoject II (Broomall, PA) was used to inject oocytes with cRNAs encoding GluN1 and GluN3 at a 1:3 ratio in RNase-free water. The cRNA was diluted as needed to give responses with amplitudes ranging between 200-2000 nA (0.2-10 ng total cRNA). […] Recording electrodes were filled with 0.3-3.0 M KCl, and current responses were recorded at a holding potential of −40 mV. […]

[2] = molecular target: T2, glycine receptors (Rattus norvegicus, UniProt P07727); assay: Glycine receptors in Xenopus oocytes (selectivity); details: 20 μM
T2 construct: expressed in transfected cells; host or cells: Xenopus laevis oocytes; cDNA from Dr. D. Weiss
T2 sequence (P07727 29-457): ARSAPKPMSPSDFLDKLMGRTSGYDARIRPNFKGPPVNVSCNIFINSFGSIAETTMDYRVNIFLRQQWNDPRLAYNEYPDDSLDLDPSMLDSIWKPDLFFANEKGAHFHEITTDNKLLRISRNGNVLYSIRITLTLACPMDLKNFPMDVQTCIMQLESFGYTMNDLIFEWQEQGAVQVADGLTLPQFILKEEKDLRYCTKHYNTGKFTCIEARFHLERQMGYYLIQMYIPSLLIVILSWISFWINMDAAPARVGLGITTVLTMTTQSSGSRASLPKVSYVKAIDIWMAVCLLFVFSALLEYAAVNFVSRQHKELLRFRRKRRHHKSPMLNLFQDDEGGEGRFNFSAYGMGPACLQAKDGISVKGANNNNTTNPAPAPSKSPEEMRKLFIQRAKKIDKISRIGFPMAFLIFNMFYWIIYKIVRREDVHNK
Method: The numbers of oocytes recorded are in parentheses.
The cDNA was linearized by restriction enzymes (Thermo Fisher Scientific, Lithuania), and the cRNA encoding the receptor subunits was synthesized from the linear template cDNA using the mMESSAGE mMACHINE kit (Invitrogen/Thermo Fisher Scientific, Lithuania). The α1β1δγ nAChR subunits were injected at a 1:1:1:1 ratio while α4 […] nAChR subunits were injected at a 1:1 ratio. The cDNAs encoding GABA and glycine subunits were provided by Dr. D. Weiss (University of Texas Health Science Center at San Antonio). The cDNAs encoding nAChR subunits were provided by Drs. R. Papke (University of Florida) and S. Heinemann (Salk Institute). The cDNA encoding the purinergic receptor was provided by Dr. R. Hume (University of Michigan).
Responses in the presence of EU1180-438 were expressed as a percent of control calculated as the average of the responses before and after EU1180-438 exposure. […]
Defolliculated Xenopus laevis oocytes (stage V-VI) were obtained from Ecocyte BioScience (Austin, Texas), or prepared from commercially available Xenopus ovaries (Xenopus 1, Dexter, MI) as previously described (Hansen, et al., Mol. Pharmacol., 2013). […] Recording electrodes were filled with 0.3-3.0 M KCl, and current responses were recorded at a holding potential of −40 mV.

[3] = molecular target: native GluN1/GluN3A receptors (Mus musculus, UniProt A2AIR5); assay: Whole-cell patch-clamp of glycine-activated responses in hippocampal CA1 pyramidal cells, acute brain slices; details: 30 μM; 1 μM CGP-78608; 10 mM glycine puffs
Sequence of native GluN1/GluN3A receptors (A2AIR5 27-1135, other chains not shown): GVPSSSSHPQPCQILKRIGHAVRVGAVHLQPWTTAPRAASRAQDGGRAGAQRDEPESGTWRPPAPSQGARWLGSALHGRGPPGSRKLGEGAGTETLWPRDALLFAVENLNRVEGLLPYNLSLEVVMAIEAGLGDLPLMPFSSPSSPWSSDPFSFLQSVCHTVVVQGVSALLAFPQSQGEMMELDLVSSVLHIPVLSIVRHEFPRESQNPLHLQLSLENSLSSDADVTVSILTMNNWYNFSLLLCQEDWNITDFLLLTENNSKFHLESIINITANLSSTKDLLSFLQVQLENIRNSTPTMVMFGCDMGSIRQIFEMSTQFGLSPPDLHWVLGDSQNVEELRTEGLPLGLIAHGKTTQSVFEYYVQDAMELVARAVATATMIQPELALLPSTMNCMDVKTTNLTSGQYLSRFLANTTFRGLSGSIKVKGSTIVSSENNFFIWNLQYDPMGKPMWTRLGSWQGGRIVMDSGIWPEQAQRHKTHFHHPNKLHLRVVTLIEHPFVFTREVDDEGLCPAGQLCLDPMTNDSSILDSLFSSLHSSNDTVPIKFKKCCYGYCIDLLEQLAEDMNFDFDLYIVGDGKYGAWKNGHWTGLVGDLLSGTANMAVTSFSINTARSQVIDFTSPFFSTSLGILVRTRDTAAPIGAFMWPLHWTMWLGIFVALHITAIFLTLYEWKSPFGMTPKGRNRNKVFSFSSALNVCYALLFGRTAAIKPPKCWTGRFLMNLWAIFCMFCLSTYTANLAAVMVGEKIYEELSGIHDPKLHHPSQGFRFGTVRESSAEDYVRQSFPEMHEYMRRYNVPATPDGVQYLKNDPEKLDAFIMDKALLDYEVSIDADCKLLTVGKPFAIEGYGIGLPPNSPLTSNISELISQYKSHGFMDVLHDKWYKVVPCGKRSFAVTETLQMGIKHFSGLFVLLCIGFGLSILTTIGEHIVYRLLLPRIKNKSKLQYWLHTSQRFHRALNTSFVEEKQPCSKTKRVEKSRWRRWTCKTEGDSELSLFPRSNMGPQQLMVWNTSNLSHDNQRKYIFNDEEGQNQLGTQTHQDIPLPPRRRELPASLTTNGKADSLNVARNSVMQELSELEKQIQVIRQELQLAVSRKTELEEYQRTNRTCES

T1 sequence (Q8VHN2 25-1002, other chains not shown): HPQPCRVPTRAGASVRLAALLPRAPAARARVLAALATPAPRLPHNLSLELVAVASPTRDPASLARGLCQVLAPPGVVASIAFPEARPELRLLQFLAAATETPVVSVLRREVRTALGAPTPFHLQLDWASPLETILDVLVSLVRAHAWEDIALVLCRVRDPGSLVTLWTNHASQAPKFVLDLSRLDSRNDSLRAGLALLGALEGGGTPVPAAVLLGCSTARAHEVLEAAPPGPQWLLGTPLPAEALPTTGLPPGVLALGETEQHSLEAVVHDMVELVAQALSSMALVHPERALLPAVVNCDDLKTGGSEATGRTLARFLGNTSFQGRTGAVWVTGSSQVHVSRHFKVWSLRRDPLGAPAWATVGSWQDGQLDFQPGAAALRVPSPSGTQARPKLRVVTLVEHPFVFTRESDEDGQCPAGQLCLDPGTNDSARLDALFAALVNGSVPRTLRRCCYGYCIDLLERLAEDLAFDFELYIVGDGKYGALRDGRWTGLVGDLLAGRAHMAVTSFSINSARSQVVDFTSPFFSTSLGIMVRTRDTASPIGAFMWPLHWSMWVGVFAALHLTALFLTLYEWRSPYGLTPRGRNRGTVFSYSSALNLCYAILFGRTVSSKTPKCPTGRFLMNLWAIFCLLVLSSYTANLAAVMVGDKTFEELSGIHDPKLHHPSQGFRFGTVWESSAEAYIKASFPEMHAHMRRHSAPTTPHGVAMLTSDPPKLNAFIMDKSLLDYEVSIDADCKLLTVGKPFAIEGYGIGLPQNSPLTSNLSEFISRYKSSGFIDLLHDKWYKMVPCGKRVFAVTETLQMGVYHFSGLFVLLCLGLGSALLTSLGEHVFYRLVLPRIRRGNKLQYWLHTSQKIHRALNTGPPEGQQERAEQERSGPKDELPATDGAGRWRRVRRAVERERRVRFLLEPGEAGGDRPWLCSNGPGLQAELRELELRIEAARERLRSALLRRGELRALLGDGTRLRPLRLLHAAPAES

## COc1ccc(OCC(c2ccc(OC)cc2)N2Cc3ccccc3C2=O)cc1 (racemic) [EU1180-438, 2-(2-(4-methoxyphenoxy)-1-(4-methoxyphenyl)ethyl)isoindolin-1-one]
[1]
  IC50: 5.2 µM
  inhibition at saturating concentrations: 82%
[2]
  activity at glycine receptors: virtually no activity
[3]
  effect on glycine-activated responses from native GluN1/GluN3A receptors: strong inhibition; also recorded: inhibited significantly
